Results taken from patent US10023602B2, “Hamamelitannin analogues and uses thereof” (Universiteit Gent, priority 2014, dated 2018).

Assays:
[1] = test system: methicillin resistant S. aureus Mu50 strain (S. aureus ATCC700699) biofilm; test: Biofilm susceptibility to vancomycin, pre-treatment regimen (biofilm formed in presence of compound, then vancomycin); format: cell-based; settings: for Pretreat (100 μM): percentage Colony Forming Units (CFU's) per biofilm: compound 100 μM during biofilm formation, then VAN 20 μg/ml, compared to the untreated (negative) control; for EC50: concentration needed to get 50% killing compared to antibiotic alone (VAN 20 μg/ml) and complete killing, read-out: Pretreat. (EC50)
Protocol: (§1) The compounds were evaluated for their effect on biofilm susceptibility both under pre-treatment and combination treatment regimens. In the pre-treatment regimen, a methicillin resistant S. aureus Mu50 strain (S. aureus ATCC700699) was allowed to form biofilms in the presence of the compounds after which the biofilm was treated with vancomycin (20 μg/ml). In the combination treatment regimen, S. aureus Mu50 was allowed to form a mature biofilm after which it was treated with a combination of a compound and vancomycin. In brief, 100 μl of a standardized inoculum (10^8 CFU/ml) was placed in the wells of a round-bottom 96-well microtiter plate. The cells were allowed to adhere to the plate in the absence (combined treatment) or presence (pre-treatment) of the compounds (0.1-250 μM) for 4 h at 37° C. After this adhesion step, non-adhered cells were removed, the wells were rinsed and fresh medium with or without the compounds was added. The plates were incubated for an additional 20 h at 37° C. After this, the medium was removed, biofilms were rinsed with physiological saline and vancomycin (20 μg/ml) was added alone (pre-treatment) or with the compounds (combined treatment, 0.1-250 μM). Plates were placed at 37° C. for 24 h after which medium was removed, wells were rinsed and the surviving cells in each condition were collected. The number of surviving cells under each condition was compared to vancomycin treatment alone and was assessed by conventional plating. The REF compound (hamamelitannin) was also observed for its effect on biofilm susceptibility towards other antibiotics (incl. vancomycin, cefoxitin, tobramycin, cefazolin, cefalonium, daptomycin, linezolide and cephalexin). Biofilms were formed as described above and were treated with the antibiotics alone or in combination with the REF compound (250 μM). The number of surviving cells under each condition was compared to the untreated control biofilm and was assessed by conventional plating.

[2] = test system: methicillin resistant S. aureus Mu50 strain (S. aureus ATCC700699) biofilm; test: Biofilm susceptibility to vancomycin, combination treatment regimen (mature biofilm treated with compound plus vancomycin); format: cell-based; settings: for Combin. (100 μM): percentage Colony Forming Units (CFU's) per biofilm: compound 100 μM together with VAN 20 μg/ml on mature biofilm, compared to the untreated (negative) control; for EC50: concentration needed to get 50% killing compared to antibiotic alone (VAN 20 μg/ml) and complete killing, read-out: Combin. (EC50)
Protocol: as §1

Row | Structure (SMILES) | Pretreat (100 μM): percentage Colony Forming Units (CFU's) per biofilm [1] [percentage] | Combin. (100 μM): percentage Colony Forming Units (CFU's) per biofilm [2] [percentage] | EC50 [1] [µM] | EC50 [2] [µM]
1 | O=C(NC[C@H]1OC[C@@](O)(CNC(=O)c2ccccc2)[C@@H]1O)c1cccc(F)c1 [compound 161, N-(((2R,3R,4S)-4-(benzamidomethyl)-3,4-dihydroxytetrahydrofuran-2-yl)methyl)-3-fluorobenzamide] | 9.353 | 16.57 |  | 
2 | O=C(NC[C@H]1OC[C@@](O)(CNC(=O)c2ccccc2)[C@@H]1O)c1cccc(Cl)c1 [compound 162, N-(((2R,3R,4S)-4-(benzamidomethyl)-3,4-dihydroxytetrahydrofuran-2-yl)methyl)-3-chlorobenzamide] | 24.07 | 29.06 |  | 
3 | COc1cccc(C(=O)NC[C@H]2OC[C@@](O)(CNC(=O)c3ccccc3)[C@@H]2O)c1 [compound 163, N-(((2R,3R,4S)-4-(benzamidomethyl)-3,4-dihydroxytetrahydrofuran-2-yl)methyl)-3-methoxybenzamide] | 28.44 | 27.21 |  | 
4 | N#Cc1cccc(C(=O)NC[C@H]2OC[C@@](O)(CNC(=O)c3ccccc3)[C@@H]2O)c1 [compound 164, N-(((2R,3R,4S)-4-(benzamidomethyl)-3,4-dihydroxytetrahydrofuran-2-yl)methyl)-3-cyanobenzamide] | 22.11 | 14.49 |  | 
5 | CN(C)c1cccc(C(=O)NC[C@H]2OC[C@@](O)(CNC(=O)c3ccccc3)[C@@H]2O)c1 [compound 165, N-(((2R,3R,4S)-4-(benzamidomethyl)-3,4-dihydroxytetrahydrofuran-2-yl)methyl)-3-(dimethylamino)benzamide] | 16.00 | 26.43 |  | 
6 | O=C(NC[C@H]1OC[C@@](O)(CNC(=O)c2ccccc2)[C@@H]1O)c1cccc(C(F)(F)F)c1 [compound 166, N-(((2R,3R,4S)-4-(benzamidomethyl)-3,4-dihydroxytetrahydrofuran-2-yl)methyl)-3-(trifluoromethyl)benzamide] | 10.16 | 12.34 | 9.13 | 12.3
7 | O=C(NC[C@H]1OC[C@@](O)(CNC(=O)c2ccccc2)[C@@H]1O)c1cccnc1 [compound 167, N-(((2R,3R,4S)-4-(benzamidomethyl)-3,4-dihydroxytetrahydrofuran-2-yl)methyl)nicotinamide] | 9.813 | 15.22 |  | 
8 | O=C(NC[C@H]1OC[C@@](O)(CNC(=O)c2ccccc2)[C@@H]1O)c1cccc(-c2ccccc2)c1 [compound 168, N-(((2R,3R,4S)-4-(benzamidomethyl)-3,4-dihydroxytetrahydrofuran-2-yl)methyl)-[1,1′-biphenyl]-3-carboxamide] | 9.830 | 32.61 |  | 
9 | Cc1ccccc1C(=O)NC[C@H]1OC[C@@](O)(CNC(=O)c2ccccc2)[C@@H]1O [compound 169, N-(((2R,3R,4S)-4-(benzamidomethyl)-3,4-dihydroxytetrahydrofuran-2-yl)methyl)-2-methylbenzamide] | 11.68 | 13.87 | 13.7 | 52.6
10 | O=C(NC[C@]1(O)CO[C@H](CNC(=O)c2ccccc2F)[C@H]1O)c1ccccc1 [compound 170, N-(((2R,3R,4S)-4-(benzamidomethyl)-3,4-dihydroxytetrahydrofuran-2-yl)methyl)-2-fluorobenzamide] | 11.84 | 16.30 |  | 
11 | O=C(NC[C@]1(O)CO[C@H](CNC(=O)c2ccccc2Cl)[C@H]1O)c1ccccc1 [compound 171, N-(((2R,3R,4S)-4-(benzamidomethyl)-3,4-dihydroxytetrahydrofuran-2-yl)methyl)-2-chlorobenzamide] | 11.56 | 7.776 | 0.389 | 7.98
12 | COc1ccccc1C(=O)NC[C@H]1OC[C@@](O)(CNC(=O)c2ccccc2)[C@@H]1O [compound 172, N-(((2R,3R,4S)-4-(benzamidomethyl)-3,4-dihydroxytetrahydrofuran-2-yl)methyl)-2-methoxybenzamide] | 15.37 | 31.40 |  | 
13 | O=C(NC[C@]1(O)CO[C@H](CN2C(=O)c3ccccc3C2=O)[C@H]1O)c1ccccc1 [compound 173, N-(((3S,4R,5R)-5-((1,3-dioxoisoindolin-2-yl)methyl)-3,4-dihydroxytetrahydrofuran-3-yl)methyl)benzamide] | 11.18 | 8.805 | 5.01 | 8.3
14 | CN(C)c1ccccc1C(=O)NC[C@H]1OC[C@@](O)(CNC(=O)c2ccccc2)[C@@H]1O [compound 174, N-(((2R,3R,4S)-4-(benzamidomethyl)-3,4-dihydroxytetrahydrofuran-2-yl)methyl)-2-(dimethylamino)benzamide] | 28.01 | 11.11 |  | 
15 | O=C(NC[C@]1(O)CO[C@H](CNC(=O)c2ccccc2C(F)(F)F)[C@H]1O)c1ccccc1 [compound 175, N-(((2R,3R,4S)-4-(benzamidomethyl)-3,4-dihydroxytetrahydrofuran-2-yl)methyl)-2-(trifluoromethyl)benzamide] | 22.48 | 34.85 |  | 
16 | O=C(NC[C@]1(O)CO[C@H](CNC(=O)c2ccccn2)[C@H]1O)c1ccccc1 [compound 176, N-(((2R,3R,4S)-4-(benzamidomethyl)-3,4-dihydroxytetrahydrofuran-2-yl)methyl)picolinamide] | 21.56 | 36.02 |  | 
17 | O=C(NC[C@]1(O)CO[C@H](CNC(=O)c2ccccc2-c2ccccc2)[C@H]1O)c1ccccc1 [compound 177, N-(((2R,3R,4S)-4-(benzamidomethyl)-3,4-dihydroxytetrahydrofuran-2-yl)methyl)-[1,1′-biphenyl]-2-carboxamide] | 15.07 | 13.23 |  | 
18 | O=C(NC[C@]1(O)CO[C@H](CNC(=O)c2ccccc2Br)[C@H]1O)c1ccccc1 [compound 178, N-(((2R,3R,4S)-4-(benzamidomethyl)-3,4-dihydroxytetrahydrofuran-2-yl)methyl)-2-bromobenzamide] | 4.10 | 17.51 | 9.85 | 19.7
19 | O=C(NC[C@]1(O)CO[C@H](CNC(=O)c2ccccc2I)[C@H]1O)c1ccccc1 [compound 179, N-(((2R,3R,4S)-4-(benzamidomethyl)-3,4-dihydroxytetrahydrofuran-2-yl)methyl)-2-iodobenzamide] | 3.84 | 16.46 | 1.85 | 20.4
20 | Cc1ccc(C(=O)NC[C@H]2OC[C@@](O)(CNC(=O)c3ccccc3)[C@@H]2O)cc1C [compound 180, N-(((2R,3R,4S)-4-(benzamidomethyl)-3,4-dihydroxytetrahydrofuran-2-yl)methyl)-3,4-dimethylbenzamide] | 79.13 | 65.66 |  | 
21 | O=C(NC[C@H]1OC[C@@](O)(CNC(=O)c2ccccc2)[C@@H]1O)c1ccc(F)c(F)c1 [compound 181, N-(((2R,3R,4S)-4-(benzamidomethyl)-3,4-dihydroxytetrahydrofuran-2-yl)methyl)-3,4-difluorobenzamide] | 67.74 | 59.09 |  | 
